Assay: Treatment-emergent adverse events, phase 1 single-rising-dose study in healthy subjects
Format: in vivo, human
Description: Healthy Japanese and non-Japanese subjects between 18 and 55 years of age were recruited to participate in the study. Criteria for exclusion included prior treatment with any investigational compound within 30 days of the first TAK-063 dose, a positive test for drugs of abuse or nicotine, and an increased risk for suicide. […] Following a washout period of 7 days, subjects in cohort 3 (100 mg) received the same dose (100 mg) but under fed conditions.
The study assessed safety and tolerability in all subjects for the 4-day study duration. The primary endpoints were the percentage of subjects who experienced at least one treatment-emergent adverse event (TEAE), as well as the percentage of subjects who met predefined criteria for safety laboratory tests, vital sign measurements, and safety parameters following TAK-063 administration. The secondary endpoints were PK parameters for TAK-063 and M-I, assessing drug exposure at each dose, and the effect of food coadministration on TAK-063 PK. Exploratory endpoints included the effects of TAK-063 on domains of cognition as assessed by a computerized battery, CNS Vital Signs (CNSVS).
Adverse events, clinical laboratory tests, vital signs, 12-lead electrocardiograms (ECGs), and Columbia-Suicide Severity Rating Scale (C-SSRS) were all monitored. Intensity of AEs was classified as mild, moderate, or severe, and each AE was classified as to its relation to study drug.
Laboratory tests evaluated hematology, serum chemistry, urine, and hormone levels. Vital signs and ECGs were collected at screening, check-in, within 1 h predose, serially postdose, and at study exit, while the C-SSRS was administered at screening, check-in, and study exit. Any events reported on the C-SSRS and clinically significant laboratory abnormalities were reported as AEs.

[1] = Japanese subjects, TAK-063 Total (n = 30)
[2] = Japanese subjects, single 3 mg dose (n = 5)
[3] = Japanese subjects, single 10 mg dose (n = 5)
[4] = Japanese subjects, single 30 mg dose (n = 5)
[5] = Japanese subjects, single 100 mg dose (n = 5)
[6] = Japanese subjects, single 300 mg dose (n = 5)
[7] = Japanese subjects, single 1000 mg dose (n = 5)
[8] = all TAK-063-treated subjects, all cohorts
[9] = all subjects, TAK-063 Total (n = 66)
[10] = all subjects, single 3 mg dose (n = 11)
[11] = all subjects, single 10 mg dose (n = 11)
[12] = all subjects, single 30 mg dose (n = 11)

For COc1cn(-c2ccc(-n3cccn3)cc2F)nc(-c2ccnn2-c2ccccc2)c1=O [TAK-063], the “Severe AE: orthostatic hypotension, number of subjects” value (300 mg) was 1, the “Severe AE: somnolence, number of subjects” value (1000 mg) was 2 and the “AEs of mild intensity” value (55/63 AEs) was 87.3%. The “Total incidence of TEAEs” value (Japanese subjects treated with TAK-063) was 43.3%, the “Adverse event: Dizziness” value [1] was 1 (3.3) n (%) and the “Adverse event: Epistaxis” value [1] was 1 (3.3) n (%). The “Adverse event: Headache” value [1] was 1 (3.3) n (%), the “Adverse event: Muscle tightness” value [1] was 1 (3.3) n (%) and the “Adverse event: Nausea” value [1] was 1 (3.3) n (%). For the same compound, the “Adverse event: Orthostatic hypotension” value [1] was 4 (13.3) n (%), the “Adverse event: Orthostatic tachycardia” value [1] was 5 (16.7) n (%) and the “Adverse event: Somnolence” value [1] was 10 (33.3) n (%). For the same compound, the “Adverse event: Vomiting” value [1] was 2 (6.7) n (%), the “Adverse event: Dizziness” value [2] was 0 n (%) and the “Adverse event: Epistaxis” value [2] was 0 n (%). For the same compound, the “Adverse event: Headache” value [2] was 0 n (%), the “Adverse event: Muscle tightness” value [2] was 0 n (%) and the “Adverse event: Nausea” value [2] was 0 n (%). The “Adverse event: Orthostatic hypotension” value [2] was 0 n (%), the “Adverse event: Orthostatic tachycardia” value [2] was 0 n (%) and the “Adverse event: Somnolence” value [2] was 0 n (%). The “Adverse event: Vomiting” value [2] was 0 n (%), the “Adverse event: Dizziness” value [3] was 0 n (%) and the “Adverse event: Epistaxis” value [3] was 0 n (%). The “Adverse event: Headache” value [3] was 0 n (%), the “Adverse event: Muscle tightness” value [3] was 0 n (%) and the “Adverse event: Nausea” value [3] was 0 n (%). For the same compound, the “Adverse event: Orthostatic hypotension” value [3] was 0 n (%), the “Adverse event: Orthostatic tachycardia” value [3] was 0 n (%) and the “Adverse event: Somnolence” value [3] was 0 n (%). The “Adverse event: Vomiting” value [3] was 0 n (%), the “Adverse event: Dizziness” value [4] was 0 n (%) and the “Adverse event: Epistaxis” value [4] was 1 (20.0) n (%). For the same compound, the “Adverse event: Headache” value [4] was 0 n (%), the “Adverse event: Muscle tightness” value [4] was 1 (20.0) n (%) and the “Adverse event: Nausea” value [4] was 0 n (%). The “Adverse event: Orthostatic hypotension” value [4] was 0 n (%), the “Adverse event: Orthostatic tachycardia” value [4] was 1 (20.0) n (%) and the “Adverse event: Somnolence” value [4] was 1 (20.0) n (%). The “Adverse event: Vomiting” value [4] was 0 n (%), the “Adverse event: Dizziness” value [5] was 0 n (%) and the “Adverse event: Epistaxis” value [5] was 0 n (%). The “Adverse event: Headache” value [5] was 1 (20.0) n (%), the “Adverse event: Muscle tightness” value [5] was 0 n (%) and the “Adverse event: Nausea” value [5] was 0 n (%). For the same compound, the “Adverse event: Orthostatic hypotension” value [5] was 1 (20.0) n (%), the “Adverse event: Orthostatic tachycardia” value [5] was 0 n (%) and the “Adverse event: Somnolence” value [5] was 4 (80.0) n (%). The “Adverse event: Vomiting” value [5] was 1(20.0) n (%), the “Adverse event: Dizziness” value [6] was 0 n (%) and the “Adverse event: Epistaxis” value [6] was 0 n (%). The “Adverse event: Headache” value [6] was 0 n (%), the “Adverse event: Muscle tightness” value [6] was 0 n (%) and the “Adverse event: Nausea” value [6] was 0 n (%). The “Adverse event: Orthostatic hypotension” value [6] was 1 (20.0) n (%), the “Adverse event: Orthostatic tachycardia” value [6] was 1 (20.0) n (%) and the “Adverse event: Somnolence” value [6] was 2 (40.0) n (%). The “Adverse event: Vomiting” value [6] was 0 n (%), the “Adverse event: Dizziness” value [7] was 1 (20.0) n (%) and the “Adverse event: Epistaxis” value [7] was 0 n (%). For the same compound, the “Adverse event: Headache” value [7] was 0 n (%), the “Adverse event: Muscle tightness” value [7] was 0 n (%) and the “Adverse event: Nausea” value [7] was 1 (20.0) n (%). The “Adverse event: Orthostatic hypotension” value [7] was 2 (40.0) n (%), the “Adverse event: Orthostatic tachycardia” value [7] was 3 (60.0) n (%) and the “Adverse event: Somnolence” value [7] was 3 (60.0) n (%). For the same compound, the “Adverse event: Vomiting” value [7] was 1 (20.0) n (%), the “Subjects experiencing drug-related AEs” value (across all cohorts) was 32 of 66 and the “Total number of drug-related AEs” value (across all cohorts) was 57. The “Drug-related AE: orthostatic hypotension, incidence” value [8] was 10.6%, the “Drug-related AE: orthostatic tachycardia, incidence” value [8] was 19.7% and the “Drug-related AE: somnolence, incidence” value [8] was 33.3%. For the same compound, the “Adverse event: Anxiety” value [9] was 1 (1.5) n (%), the “Adverse event: Blurred vision” value [9] was 1 (1.5) n (%) and the “Adverse event: Dizziness” value [9] was 3 (4.5) n (%). For the same compound, the “Adverse event: Dysarthria” value [9] was 1(1.5) n (%), the “Adverse event: Epistaxis” value [9] was 1 (1.5) n (%) and the “Adverse event: Headache” value [9] was 2 (3.0) n (%). The “Adverse event: Hypotension” value [9] was 1 (1.5) n (%), the “Adverse event: Muscle tightness” value [9] was 1 (1.5) n (%) and the “Adverse event: Nausea” value [9] was 3 (4.5) n (%). The “Adverse event: Orthostatic hypotension” value [9] was 7 (10.6) n (%), the “Adverse event: Orthostatic tachycardia” value [9] was 13 (19.7) n (%) and the “Adverse event: Somnolence” value [9] was 22 (33.3) n (%). For the same compound, the “Adverse event: Vomiting” value [9] was 3 (4.5) n (%), the “Adverse event: Anxiety” value [10] was 0 n (%) and the “Adverse event: Blurred vision” value [10] was 0 n (%). The “Adverse event: Dizziness” value [10] was 0 n (%), the “Adverse event: Dysarthria” value [10] was 0 n (%) and the “Adverse event: Epistaxis” value [10] was 0 n (%). For the same compound, the “Adverse event: Headache” value [10] was 0 n (%), the “Adverse event: Hypotension” value [10] was 0 n (%) and the “Adverse event: Muscle tightness” value [10] was 0 n (%). The “Adverse event: Nausea” value [10] was 0 n (%), the “Adverse event: Orthostatic hypotension” value [10] was 0 n (%) and the “Adverse event: Orthostatic tachycardia” value [10] was 2 (18.2) n (%). For the same compound, the “Adverse event: Somnolence” value [10] was 0 n (%), the “Adverse event: Vomiting” value [10] was 0 n (%) and the “Adverse event: Anxiety” value [11] was 0 n (%). The “Adverse event: Blurred vision” value [11] was 0 n (%), the “Adverse event: Dizziness” value [11] was 0 n (%) and the “Adverse event: Dysarthria” value [11] was 0 n (%). For the same compound, the “Adverse event: Epistaxis” value [11] was 0 n (%), the “Adverse event: Headache” value [11] was 0 n (%) and the “Adverse event: Hypotension” value [11] was 0 n (%). The “Adverse event: Muscle tightness” value [11] was 0 n (%), the “Adverse event: Nausea” value [11] was 0 n (%) and the “Adverse event: Orthostatic hypotension” value [11] was 0 n (%). For the same compound, the “Adverse event: Orthostatic tachycardia” value [11] was 0 n (%), the “Adverse event: Somnolence” value [11] was 0 n (%) and the “Adverse event: Vomiting” value [11] was 0 n (%). The “Adverse event: Anxiety” value [12] was 0 n (%), the “Adverse event: Blurred vision” value [12] was 0 n (%) and the “Adverse event: Dizziness” value [12] was 1 (9.1) n (%). For the same compound, the “Adverse event: Dysarthria” value [12] was 0 n (%), the “Adverse event: Epistaxis” value [12] was 1 (9.1) n (%) and the “Adverse event: Headache” value [12] was 0 n (%). The “Adverse event: Hypotension” value [12] was 0 n (%), the “Adverse event: Muscle tightness” value [12] was 1 (9.1) n (%) and the “Adverse event: Nausea” value [12] was 2 (18.2) n (%). For the same compound, the “Adverse event: Orthostatic hypotension” value [12] was 0 n (%) and the “Adverse event: Orthostatic tachycardia” value [12] was 1 (9.1) n (%).

From article PMC5063900, “A phase 1 study of the safety, tolerability, pharmacokinetics, and pharmacodynamics of TAK-063, a selective PDE10A inhibitor” (Psychopharmacology, 2016)
